According to US20220323433A2, “CLINICAL REGIMEN FOR TREATING MYELODYSPLASTIC SYNDROME WITH PHOSPHATASE INHIBITOR” (H. Lee Moffitt Cancer Center and Research Institute, Inc., priority 2016, published 2022):
Read-outs that look alike come from different tables or passages of the source.

Legend:
male Fischer rats = assay: Non-GLP dose ranging toxicology study in rats, daily IV infusion for 4 days; settings: for MTD: male Fischer rats, IV daily for 4 days
Method: In a non-GLP dose ranging study in male Fischer rats, LB-100 was administered by daily intravenous (IV) infusion at 0.5, 0.75 and 1.5 mg/kg/day for 4 consecutive days.

solid tumors = settings: human, in vivo
[1] = test system: male and female beagle dogs
Method: In the GLP repeat dose dog study, LB-100 was administered by intravenous injection (slow bolus push) at dose levels of 0.15, 0.30, and 0.75 mg/kg daily for 5 consecutive days. […] The dosage level was reduced to 0.50 mg/kg/day for the 4th and 5th doses (study Days 3 and 4).
Multilead (I, II, III, aVR, aVL, aVF, and V2) ECGs were recorded for all animals prior to randomization (Day−8) and for all surviving animals on Day 4 (recorded approximately 2 to 4 hours following dose administration) and Day 27.
Blood pressure (systolic, diastolic, and mean arterial pressure) data were recorded for all animals once during the pretest period (Day−8) and for all surviving animals on study Day 4 (recorded approximately 2 to 4 hours following dose administration) and Day 27.

[2] = test system: male and female Sprague Dawley rats; assay: GLP repeat-dose study in rats, daily IV slow bolus for 5 days; settings: for C0 / AUClast: 0.75 mg/kg/day
[3] = Solubility and stability of LB-100 solution; assay type: physicochemical; settings: for stability: formulated in monosodium glutamate
Text: LB-100 is a water soluble enantiomeric zwitterion provided as a sterile solution for intravenous administration.
Phosphate buffered saline (PBS) was used as the vehicle for LB-100 administration in preclinical efficacy studies and sodium bicarbonate 4.2% for injection was used as the vehicle for GLP toxicity studies.

beagle dogs = assay: Non-GLP dose ranging study in dogs, IV every 4 days x 4 doses; assay type: in vivo, dog
Text: Single cell necrosis was observed throughout the gastrointestinal tract.

del(5q) MDS = settings: cited from earlier work; for median overall survival: long term follow up
del(5q) clones = settings: del(5q) patients; cited from earlier work
[4] = MDS-003 multicenter Phase 2 trial

Question: With `CN1CCN(C(=O)C2C(C(=O)O)[C@H]3CC[C@@H]2O3)CC1` (mixture of isomers) [LB-100, 3-{4methylpiperazine-carbonyl}-7-oxalobicyclo[2.2.1]heptane-2-carboxylic acid] as the compound, how does the nephrosis severity (male Fischer rats; 0.75 mg/kg/day) read?
Answer: mild

Question: What about the “no-observed-adverse-effect-level (NOAEL)” value (male Fischer rats; 0.5, 0.75 and 1.5 mg/kg/day IV for 4 days) of the same compound?
Answer: not established

Question: And the heart toxicity (male Fischer rats; 0.75 and 1.5 mg/kg/day groups)?
Answer: epicardial hyperplasia with inflammation primarily on the epicardium of the atria

Question: And the unscheduled deaths (male Fischer rats; any of the treatment groups (0.5, 0.75, 1.5 mg/kg/day))?
Answer: no unscheduled deaths

Question: What about the MTD (male Fischer rats) of the same compound?
Answer: 0.75 mg/kg/day

Question: And the MTD (male Fischer rats; surface area equivalent)?
Answer: about 4.5 mg/m^2

Question: And the dose-limiting toxicities (male Fischer rats; rat, in vivo, iv)?
Answer: Kidney, heart, femoral bone, liver and urinary bladder toxicity

Question: And the “cardiac or myelosuppressive toxicities” value (solid tumors)?
Answer: no cardiac or myelosuppressive toxicities observed

Question: And the dose limiting toxicities (solid tumors)?
Answer: no dose limiting toxicities

Question: And the “plasma concentrations of LB-100” value (solid tumors)?
Answer: greater than 1 μM

Question: And the tolerability (solid tumors)?
Answer: well tolerated

Question: What about the tolerability ([1]; 0.15 mg/kg/day) of the same compound?
Answer: well tolerated

Question: What about the test article-related lethality ([1]; 0.75 mg/kg/day group, prior to fourth dose) of the same compound?
Answer: 2 of 10

Question: What about the “Highest Non-Severely Toxic Dose (HNSTD)” value ([1]; beagle dogs, IV daily for 5 consecutive days) of the same compound?
Answer: 0.15 mg/kg

Question: What about the ECGs ([1]; dog, in vivo) of the same compound?
Answer: within normal limits

Question: And the blood pressure ([1]; dog, in vivo)?
Answer: unaffected

Question: What about the “hematology or coagulation parameters” value ([1]; dog, in vivo) of the same compound?
Answer: no residual effects

Question: And the urinalysis parameters ([1]; dog, in vivo)?
Answer: no test article-related changes

Question: What about the C0 ([2]; females, study Day 4) of the same compound?
Answer: 2347 ng/mL

Question: And the AUClast ([2]; males, study Day 4)?
Answer: 596 ng·h/mL

Question: And the C0 ([2]; males, study Day 4)?
Answer: 1804 ng/mL

Question: What about the “heart findings (epicardium and subepicardium of the atrium)” value ([2]; 0.5, 0.75, 1.25 mg/kg/day males and 1.25 mg/kg/day females) of the same compound?
Answer: Minimal to mild subacute inflammation

Question: And the kidney findings ([2]; 0.75 and 1.25 mg/kg/day group males and females)?
Answer: adverse, test article-related nephrosis of the kidneys

Question: What about the “severely toxic dose in 10% of the animals (STD 10)” value ([2]; Sprague Dawley rats, IV slow bolus daily for 5 days) of the same compound?
Answer: 0.75 mg/kg/day

Question: What about the “reversibility of effects on urinalysis parameters” value ([2]; all treatment groups) of the same compound?
Answer: reversible

Question: What about the AUClast ([2]; female, Sprague Dawley, rat, in vivo, iv) of the same compound?
Answer: 691 ng·h/mL

Question: What about the water solubility [3] of the same compound?
Answer: water soluble

Question: And the stability ([3]; pH 10.5, at refrigerated temperatures)?
Answer: at least 8 hours

Question: What about the stability ([3]; pH 10.5, at −20° C.) of the same compound?
Answer: stable for months

Question: And the “racemization of separated enantiomers” value ([3]; in solution)?
Answer: racemize rapidly in solution

Question: What about the survival (beagle dogs; 0.1, 0.25, 0.5, 1.0 mg/kg) of the same compound?
Answer: no LB-100-related effects on survival

Question: What about the “no observed-effect level (NOEL)” value (beagle dogs; beagle dogs, IV every 4 days x 4 doses) of the same compound?
Answer: 0.25 mg/kg

Question: And the signs of toxicity (beagle dogs; dog, in vivo, 1 mg/kg)?
Answer: almost no signs of toxicity

Question: Which results are given for `Nc1cccc2c1CN(C1CCC(=O)NC1=O)C2=O` (stereo not shown) [lenalidomide]?
Answer: patients achieving a complete response (CR) (del(5q) MDS; MDS-003, cytogenetic response): 45%; patients with at least a partial cytogenetic response (del(5q) MDS; MDS-003): 73%; median TI duration (del(5q) MDS; [4]): 2.2 years; patients achieved transfusion independence (TI) (del(5q) MDS; [4]): 67%; patients who develop resistance (del(5q) MDS; after 2-3 years of treatment): approximately 50%; median overall survival (del(5q) MDS; cytogenetic non-responders): 3.1 years; median overall survival (del(5q) MDS; cytogenetic responders): 4.9 years; median overall survival (del(5q) MDS; non-responders (TI)): 2 years; median overall survival (del(5q) MDS; patients who reached TI): 4.3 years; median duration of TI (del(5q) MDS; patients with PP2Acα suppression from baseline, not reached): ≥ 1507 days; median duration of responses (del(5q) MDS; patients with del5q MDS): 2.5 years; median duration of TI (del(5q) MDS; patients without PP2Acα suppression (P=0.006, log rank)): 679 days; apoptosis and cell cycle arrest (del(5q) clones): induces apoptosis and cell cycle arrest
